From patent US6720345B1, “Semicarbazone derivatives and their use as thrombopoietin mimetics” (SmithKline Beecham Corporation, priority 1999, dated 2004)

Molecular target: T1, TPO receptor (Homo sapiens, UniProt P40238)
T1 construct: expressed in transfected cells; host or cells: murine BaF3 cells (TPO-responsive line)
T1 sequence (P40238 26-635): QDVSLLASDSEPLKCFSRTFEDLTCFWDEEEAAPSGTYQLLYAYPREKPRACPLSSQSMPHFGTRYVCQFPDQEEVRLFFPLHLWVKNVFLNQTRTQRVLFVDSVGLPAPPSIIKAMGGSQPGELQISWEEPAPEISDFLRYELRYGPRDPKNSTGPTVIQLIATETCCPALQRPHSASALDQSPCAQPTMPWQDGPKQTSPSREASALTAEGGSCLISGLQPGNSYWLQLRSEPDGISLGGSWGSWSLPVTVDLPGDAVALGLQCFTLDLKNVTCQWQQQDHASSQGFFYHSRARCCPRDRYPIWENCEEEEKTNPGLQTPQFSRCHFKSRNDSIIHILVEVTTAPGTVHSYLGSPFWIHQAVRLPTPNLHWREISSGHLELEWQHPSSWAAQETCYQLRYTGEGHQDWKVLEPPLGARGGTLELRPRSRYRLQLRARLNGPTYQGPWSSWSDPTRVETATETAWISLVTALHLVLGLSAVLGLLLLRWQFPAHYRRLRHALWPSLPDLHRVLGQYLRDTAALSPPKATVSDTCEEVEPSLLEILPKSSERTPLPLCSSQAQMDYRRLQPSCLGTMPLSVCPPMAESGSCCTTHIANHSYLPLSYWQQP
Test: Luciferase assay in TPO-responsive BaF3 cell line
Type: cell-based, murine
Settings: at a concentration of 10 uM
Procedure: Compounds of the present invention were tested for potency as mimetics of the TPO receptor in a Luciferase assay such as described in Lamb, et al., Nucleic Acids Research 23: 3283-3289 (1995) and Seidel, et al., Proc. Natl. Acad. Sci., USA 92: 3041-3045 (1995) by substituting a TPO-responsive BaF3 cell line (Vigon et al. Proc. Natl. Acad. Sci. USA 1992, 89, 5640-5644) for the HepG2 cells utilized therein. The murine BaF3 cells express TPO receptors and closely match the pattern of STAT (signal transducers and activators of transcription) activation observed in primary murine and human bone marrow cells in response to TPO.

activation, % of control (control is the maximal response to TPO): about 9 % of control
SMILES: O=C1CSC(=S)N1N=Cc1cc(Br)cc(Br)c1O [Compound A, 3-[(2-hydroxy-3,5-dibromophen-1-yl)methyleneamino]-2-thioxothiazolidin-4-one]
